Assay [1] concerns the target T1, human polymorphonuclear elastase (HSE) (Homo sapiens, UniProt P08246).
T1 sequence (P08246 30-267): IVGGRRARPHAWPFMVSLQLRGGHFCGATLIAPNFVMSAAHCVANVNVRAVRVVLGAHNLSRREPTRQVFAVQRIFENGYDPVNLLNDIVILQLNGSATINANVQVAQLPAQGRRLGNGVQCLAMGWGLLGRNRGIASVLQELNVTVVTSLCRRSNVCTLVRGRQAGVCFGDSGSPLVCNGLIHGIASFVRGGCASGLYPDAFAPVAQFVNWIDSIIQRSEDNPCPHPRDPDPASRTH
The experiment in a line: Inhibitory effects on human polymorphonuclear elastase. The class given is biochemical. Particulars: substrate Meo-Suc-Ala-Ala-Pro-Val-pNA; HEPES pH 8.0; preincubation 37° C. 20 min, incubation 5 min. How it is done:
(1) Inhibitory effects on human polymorphonuclear elastase
A mixture with 0.5 ml of 0.2 mM HEPES buffer (pH 8.0), 0.2 ml of 2.5M NaCl, 0.1 ml of 1% polyethyleneglycol 6000, 0.13 ml of distilled water, test compound dissolved in 0.01 ml of dimethylsulfoxide (DMSO) and 0.05 ml of 0.8 Unit/ml human polymorphonuclearelastase (HSE) was preincubated at 37° C. for 20 min. 5 mM of Meo-Suc-Ala-Ala-Pro-Val-pNA (DMSO solution, 0.01 ml) was then added to the above mixture and was incubated at 37° C. for 5 min. The reaction was terminated by 0.1 ml of 50% acetic acid and the p-nitroanilide (pNA) released was measured spectrophotometrically at […]. Percent inhibition of a compound was calculated by the following equation.
Inhibition (%)=1-{derlat OD(test-blank)/deltaOD(control-blank)}×100

The test system of assay [2] is human polymorphonuclear elastase-induced lung hemorrhage. The assay can be described thus: Inhibitory effects on human polymorphonuclear elastase-induced lung hemorrhage in hamster. It counts as in vivo, Syrian hamster. As to conditions: oral, 60 min before intratracheal HSE 10 U/0.1 ml, blood in BALF; for inhibition at 500 mg/kg (%): 5 Syrian hamsters per group; for ED50: Homo sapiens, Syrian hamsters. As for the experimental part: (2) Inhibitory effects on human polymorphonuclear elastase-induced lung hemorrhage in hamster
A test compound suspended in 0.5% Carboxymethylcellulose or 80% Polyethyleneglycol, 400 or 2% Tween 80 was administered orally to a group of 5 Syrian hamsters. At 60 min after the administration, 10 U/0.1 ml of HSE was injected intratracheally via surgically exposed trachea under pentobarbital anesthesia (60 mg/kg, i.p.) to induce lung injury. At 60 min after the injection, hamsters were bled to sacrifice and subjected to bronchoalveolar lavage with 2.5 ml of saline and recovered lavage solution (BALF). The recovered BALF (0.5 ml) was diluted by 4 times with 2% aqueous solution sodium carbonate and sonicated for 10 sec. The lavage fluid was further diluted by 2.5 times with 2% aqueous solution sodium carbonate and the amount of blood in BALF was calculated from absorbance at 414 nm using standard curve.

Counter-ions that a name gives are not always drawn.

As usually defined, the IC50 is the midpoint of a concentration-inhibition curve. The inhibition is the drop in the measured response relative to a control, in per cent. Low values mean little suppression, high ones strong suppression. The term ED50 denotes the dose that gives a 50% effect, or the effect in half of the subjects. High values mean a need for a large dose, low ones an effect at a small dose.

On to `CCC(C(=O)Oc1ccc(S(=O)(=O)n2c(C(=O)O)cc3cc(OC)c(OC)cc32)cc1C)c1ccc(N2CCCC2)cc1` (racemic) [2(42), 4-(2-carboxy-5,6-dimethoxyindol-1-ylsulfonyl)-2-methylphenyl 2RS-(4-(pyrrolidin-1-yl)phenyl)butanoic acid ester], for which 13 nM corresponded to half-maximal inhibition in assay [1] (IC50). Further, the “inhibition at 500 mg/kg (%)” value in assay [2] worked out at 67%.
On to `CCC(C(=O)Oc1ccc(S(=O)(=O)N2c3ccccc3CC2C(=O)O)cc1)c1ccccc1OC` (racemic) [2(62), 4-(2RS-carboxyindolin-1-ylsulfonyl)phenyl 2RS-(2-methoxyphenyl)butanoic acid ester], for which half-maximal inhibition in assay [1] (IC50) required 6.8 nM.
In assay [1], `CCC(C(=O)Oc1ccc(S(=O)(=O)n2c(C(=O)O)cc3ccccc32)cc1C)c1ccc(C)cc1` (racemic) [2(69), 4-(2-carboxyindol-1-ylsulfonyl)-2-methylphenyl 2RS-(4-methylphenyl)butanoicacid ester] had a half-inhibitory concentration (IC50) of 11 nM. The “inhibition at 500 mg/kg (%)” value in assay [2] turned out to be 83%.
On to `CCC(C(=O)Oc1ccc(S(=O)(=O)NC23CC4CC(C2)CC(C(=O)O)(C4)C3)cc1)c1ccc(N2CCCC2)cc1` (racemic) [2(111), 4-(N-3-carboxyadamantan-1-ylsulfamoyl)phenyl 2RS-(4-(pyrrolidin-1-yl)phenyl)butanoic acid ester], for which half-maximal inhibition in assay [1] (IC50) was put at 9.7 nM.
Take `CCC(C(=O)Oc1ccc(S(=O)(=O)Nc2ccccc2C(=O)NCC(=O)O)cc1)c1ccc2c(c1)OCO2` (racemic) [2(120), 4-(N-2-(N'-carboxymethylcarbamoyl)phenylsulfamoyl)phenyl 2RS-(1,3-benzodioxol-5-yl)butanoic acid ester]: in assay [1], the IC50 turned out to be 23 nM.
The same measure, in the same setting: the figure for `CCC(C(=O)Oc1ccc(S(=O)(=O)Nc2ccccc2C(=O)NCC(=O)O)cc1)c1ccc(OC)c(OC)c1` (racemic) [2(157), 4-(N-2-(N'-carboxymethylcarbamoyl)phenylsulfamoyl)phenyl 2RS-(3,4-dimethoxyphenyl)butanoic acid ester] is 8 nM; for `CCC(C(=O)Oc1ccc(S(=O)(=O)Nc2ccccc2C(=O)NCC(=O)O)cc1)c1ccc(C)cc1` (racemic) [2(173), 4-(N-2-(N'-carboxymethylcarbamoyl)phenylsulfamoyl)phenyl 2RS-(4-methylphenyl)butanoic acid ester] it is 14 nM; for `CCC(C(=O)Oc1ccc(S(=O)(=O)Nc2ccccc2C(=O)NCC(=O)O)cc1)c1ccc(N(C)C)cc1` (racemic) [2(197), 4-(N-2-(N'-carboxymethylcarbamoyl)phenylsulfamoyl)phenyl 2RS-(4-(N,N-dimethylamino)phenyl)butanoic acid ester.hydrochloride] it is 10 nM.
In turn, `CCC(C(=O)Oc1ccc(S(=O)(=O)N2CCOCC2)cc1)c1ccc(N2CCCC2)cc1` (racemic) [Example 1(16), 4-(morpholin-4-ylsulfonyl)phenyl 2RS-(4-(pyrrolidin-1-yl)phenyl)butanoic acid ester] gave an IC50 in assay [1] of 17 nM.
With `CCOC(=O)C(CN1CCOCC1)NS(=O)(=O)c1ccc(OC(=O)C(CC)c2ccc(N3CCCC3)cc2)cc1` (racemic) [Example 1(40), 4-(N-1RS-(ethoxycarbonyl)-2-(morpholin-4-yl)ethylsulfamoyl)phenyl 2RS-(4-(pyrrolidin-1-yl)phenyl)butanoic acid ester], in assay [1], the IC50 stood at 19 nM.
Still for that read-out and setting: with `CCC(C(=O)Oc1ccc(S(=O)(=O)NCC(N)=O)cc1)c1ccc(N2CCCC2)cc1` (racemic) [Example 1(56), 4-(N-(carbamoylmethyl)sulfamoyl)phenyl 2RS-(4-(pyrrolidin-1-yl)phenyl)butanoic acid ester] the figure was 14 nM.
With `CCC(C(=O)Oc1ccc(S(=O)(=O)NCC(O)CO)cc1C)c1ccc(C)cc1` (racemic) [Example 1(68), 4-(N-2RS,3-dihydroxypropylsulfamoyl)-2-methylphenyl 2RS-(4-methylphenyl)butanoic acid ester], the “inhibition at 500 mg/kg (%)” value in assay [2] was found to be 51%.
In assay [1], `CCC(C(=O)Oc1ccc(S(=O)(=O)NCCc2ccccn2)cc1)c1ccc(N2CCCC2)cc1` (racemic) [Example 1(78), 4-(N-2-(pyridin-2-yl)ethylsulfamoyl)phenyl 2RS-(4-(pyrrolidin-1-yl)phenyl)butanoic acid ester.2hydrochloride] came in with an IC50 of 8 nM.
For the molecule `CCC(C(=O)Oc1ccc(S(=O)(=O)NC2CN3CCC2CC3)cc1C)c1ccc(N2CCCC2)cc1` (racemic) [Example 1(90), 4-(N-(quinuclidin-3RS-yl)sulfamoyl)-2-methylphenyl 2RS-(4-(pyrrolidin-1-yl)phenyl)butanoic acid ester], the “inhibition at 500 mg/kg (%)” value in assay [2] was 65%.
For `CCC(C(=O)Oc1ccc(S(=O)(=O)N2CSC[C@H]2C(=O)O)cc1)c1ccc(N2CCCC2)cc1` (stereo partly drawn) [2(77), 4-(4S-carboxyperhydrothiazol-3-ylsulfonyl)phenyl 2RS-(4-(pyrrolidin-1-yl)phenyl)butanoic acid ester.hydrochloride], 18 nM corresponded to half-maximal inhibition in assay [1] (IC50).
`O=C(O)CNC(=O)c1ccccc1NS(=O)(=O)c1ccc(OC(=O)C2(c3ccc([N+](=O)[O-])cc3)CCC2)cc1` [2(179), 4-(N-2-(N'-carboxymethylcarbamoyl)phenylsulfamoyl)phenyl 1-(4-nitrophenyl)cyclobutanecarboxylic acid ester]: half-maximal inhibition in assay [1] (IC50) required 49 nM.
On the same count and under the same terms, with `CC[C@H](C(=O)Oc1ccc(S(=O)(=O)N2CCc3cc([N+](=O)[O-])ccc32)cc1C)c1ccc(N2CCCC2)cc1` [Example 1(130), 4-(5-nitroindolin-1-ylsulfonyl)-2-methylphenyl 2S-(4-(pyrrolidin-1-yl)phenyl)butanoic acid ester] the figure was 22 nM.
`CC[C@H](C(=O)Oc1ccc(S(=O)(=O)NCCN2CCOCC2)cc1C)c1ccc(N2CCCC2)cc1` [Example 1(139), 4-(2-(morpholin-4-yl)ethylaminosulfonyl)-2-methylphenyl 2S-(4-(pyrrolidin-1-yl)phenyl)butanoic acid ester.2hydrochloride]: inhibition in assay [1] was half-maximal at 24 nM (IC50). For the same molecule, the ED50 in assay [2] stood at 192 mg/kg.
Take `CCC(C(=O)Oc1ccc(S(=O)(=O)N2CCC[C@H]2C(=O)O)cc1)c1ccc(N2CCCC2)cc1` (stereo partly drawn) [Example 2(1), 4-(2S-carboxypyrrolidin-1-ylsulfonyl)phenyl 2RS-(4-(pyrrolidin-1-yl)phenyl)butanoic acid ester.hydrochloride]: the IC50 in assay [1] was 12 nM.
On to `CCc1cc(S(=O)(=O)N2CCNCC2)ccc1OC(=O)[C@@H](CC)c1ccc(N2CCCC2)cc1` [Example 2(274), 4-(piperazin-4-ylsulfonyl)-2-ethylphenyl 2S-(4-(pyrrolidin-1-yl)phenyl)butanoic acid ester.2hydrochloride], for which the IC50 in assay [1] was found to be 12 nM. Also, it took a dose of 132 mg/kg to reach the 50% effect level in assay [2] (ED50).
The matching figures for `CC[C@H](C(=O)Oc1ccc(S(=O)(=O)N2CCNCC2)cc1C)c1ccc(N2CCCC2)cc1` [Example 2(276), 4-(piperazin-4-ylsulfonyl)-2-methylphenyl 2S-(4-(pyrrolidin-1-yl)phenyl)butanoic acid ester.2hydrochloride]: 9.3 nM and 73 mg/kg.
`CCC(C(=O)Oc1ccc(S(=O)(=O)N2CCC[C@H]2C(=O)O)cc1C)c1ccc(N2CCCC2)cc1` (stereo partly drawn) [Example 2, 4-(2S-carboxypyrrolidin-1-ylsulfonyl)-2-methylphenyl 2RS-(4-(pyrrolidin-1-yl)phenyl)butanoic acid ester.hydrochloride] showed an IC50 in assay [1] of 55 nM. In addition, the “inhibition at 500 mg/kg (%)” value in assay [2] amounted to 81%.
